pIC50: −log10 of the molar value. Where a name gives a salt, the structure may show the parent alone. Read-outs that look alike come from different tables or passages of the source.
Legend:
[1] = test system: human hepatoma derived HepG2 cells; assay: HepG2 cytotoxicity assay (resazurin); type: cell-based; details: HepG2, 24 hr drug, 24 hr recovery
Protocol: (§1) In this assay, HepG2 cells were incubated with test compounds for 24 hours, followed by a 24-hour recovery period and subsequent staining to evaluate for cytotoxic effects with resazurin. The ratio of the resulting HepG2 IC50 value to the P. falciparum D6 IC50 value can be considered an ‘in vitro therapeutic index,’ or IVTI.
(§2) Compounds were prepared as 10 mM stock solutions in DMSO. […] HepG2 cells were added to each well of flat bottom 96-well tissue culture plates at an initial density of 2×10^4 cells per well, and an initial volume of 160 μL complete medium per well. After an overnight incubation at 37° C. to adhere the cells to the culture plates, 40 μL drug solutions in complete medium were applied to each well at a final concentration range of 0 to 200 μM across each plate. Drugs were tested in triplicate or quadruplicate. The cells were incubated for 24 hours at 37° C. and 5% CO2 with the drug solutions, which were then aspirated and replaced with 200 μL per well of complete medium for an additional 24 hour incubation under the same conditions. To each well was added 20 μL of resazurin (Alamar Blue) in PBS buffer to a final concentration of 10 μM, and the plates were incubated for 3 hours. Fluorescence was measured at 560 nm excitation and 590 nm emission bands using a Spectramax iD3 plate reader. Fluorescence readings were normalized with respect to the untreated control wells and plotted against the logarithm of drug concentration.

P. falciparum Tm90-C2B = assay: SYBR Green growth inhibition assay, P. falciparum Tm90-C2B; type: cell-based, Plasmodium falciparum; details: read-out: IC50 Tm90-C2B
Protocol: (§3) In addition to the drug-sensitive P. falciparum D6 strain, the aminoguanidines were assessed against three drug-resistant strains (Tables 1-3).
(§4) The following parasite strains were used in this study and obtained through BEI Resources, NIAID, NIH. […] The culture medium used was RPMI-1640, supplemented with 25 mM HEPES buffer, 25 mg/L gentamicin sulfate, 45 mg/L hypoxanthine, 10 mM glucose, 2 mM glutamine, and 0.5% Albumax II (complete medium).^43 Cultures were maintained in a standard low oxygen atmosphere (5% O2, 5% CO2, 90% N2) in an environmental chamber and incubated at 37° C. Cultures were sub-passaged every 3-4 days into a fresh culture flask containing complete media and erythrocytes.
(§5) The aminoguanidine series was assessed for in vitro antiplasmodial activity using the fluorescence-based SYBR Green assay described previously by Smilkstein and co-workers.^38 Compounds were evaluated in quadruplicate in flat-bottomed Costar clear 96-well plates (Model #3585). A two-fold serial dilution of each compound was performed across the columns of the test plates starting with 20 μM and ending with a final untreated column to serve as control wells. Asynchronous parasite infected erythrocytes in growth media were added to each well for a total volume of 100 μL, final hematocrit of 2%, and initial parasitemia of 0.2%. The commercial malaria drugs atovaquone and chloroquine were used as control drugs. Test plates were incubated for 72 hr at 37° C. in an environmental chamber with a controlled low oxygen atmosphere (5% O2, 5% CO2, 90% N2). After the incubation period, 100 μL SYBR Green I dye-detergent solution was added to each well, and the plates were incubated at ambient temperature and atmosphere in the dark for at least one hour. Fluorescence was read at 497 nm excitation and 520 nm emission bands using a Spectramax iD3 plate reader. Fluorescence readings were normalized with respect to the untreated control wells representing normal parasite growth and plotted against the logarithm of drug concentration.

P. falciparum A6 = assay: SYBR Green growth inhibition assay, P. falciparum A6; type: cell-based, Plasmodium falciparum; details: read-out: IC50 A6
Protocol: as §3, §4, §5

P. falciparum strain D6 = assay: SYBR Green growth inhibition assay, P. falciparum D6; type: cell-based, Plasmodium falciparum; details: read-out: IC50 D6
Protocol: The in vitro activity of each compound in the aminoguanidine library was assessed against asynchronous cultures of Plasmodium falciparum parasites replicating within human erythrocytes (Tables 1-3). As the chemical development of robenidine was not discussed in its original publication in 1970^4 and limited structural information is available regarding its mechanism of action,^10 profiling was guided primarily by in vitro potency against the P. falciparum D6 strain cultured in human erythrocytes as described above.
as §4
as §5, with “The commercial malaria drugs atovaquone and chloroquine were used as control drugs.” left out

P. falciparum Dd2 = assay: SYBR Green growth inhibition assay, P. falciparum Dd2; type: cell-based, Plasmodium falciparum; details: read-out: IC50 Dd2
Protocol: as §3, §4, §5

[2] = HepG2 cytotoxicity assay (resazurin); type: cell-based, human; details: human, HepG2 cells; HepG2, 24 hr drug, 24 hr recovery
Protocol: as §1, §2

[3] = Plasmodium falciparum, TM90, 72 h
[4] = Plasmodium falciparum, DD2, 72 h
[5] = Plasmodium falciparum, D6, Erythrocyte, 72 h
[6] = multi-drug resistant clinical isolate, also atovaquone resistant, 72 hr
[7] = mutant line resistant to respiratory antagonists, 72 hr
[8] = pan-sensitive strain, 72 hr, asynchronous cultures in human erythrocytes
[9] = multi-drug resistant strain, 72 hr

SMILES	pIC50 [1]	pIC50 (P. falciparum Tm90-C2B; [3])	pIC50 (P. falciparum A6; Plasmodium falciparum, 72 h)	pIC50 (P. falciparum strain D6; Plasmodium falciparum, D6, Erythrocyte, pan-sensitive strain, 72 hr, asynchronous cultures in human erythrocytes)	pIC50 (P. falciparum Dd2; [4])	IC50 at 24 h [2] [nM]	pIC50 (P. falciparum strain D6; [5])	pIC50 (P. falciparum Tm90-C2B; [6])	pIC50 (P. falciparum A6; [7])	pIC50 (P. falciparum strain D6; [8])	pIC50 (P. falciparum Dd2; [9])
O=C1C(O)=C([C@H]2CC[C@H](c3ccc(Cl)cc3)CC2)C(=O)c2ccccc21 [Atovaquone, reference compound]	4.14	< 5.30	< 5.30	> 9.00	> 9.00	–	–	–	–	–	–
N=C(N/N=C/c1ccccc1F)N/N=C/c1ccccc1F [Compound 2]	–	< 5.30	5.72	–	5.34	> 200000	5.54	–	–	–	–
N=C(N/N=C/c1cccc(F)c1)N/N=C/c1cccc(F)c1 [Compound 3]	–	< 5.30	6.37	–	< 5.30	49000	6.12	–	–	–	–
N=C(N/N=C/c1ccc(F)cc1)N/N=C/c1ccc(F)cc1 [Compound 4]	–	5.31	6.43	–	5.42	24000	5.99	–	–	–	–
N=C(N/N=C/c1ccccc1Cl)N/N=C/c1ccccc1Cl [Compound 5]	–	5.91	6.46	–	6.02	> 200000	6.48	–	–	–	–
N=C(N/N=C/c1cccc(Cl)c1)N/N=C/c1cccc(Cl)c1 [Compound 6]	–	6.18	6.63	–	6.25	35000	6.69	–	–	–	–
N=C(N/N=C/c1ccccc1Br)N/N=C/c1ccccc1Br [Compound 7]	–	6.01	6.06	–	6.15	94000	6.55	–	–	–	–
N=C(N/N=C/c1cccc(Br)c1)N/N=C/c1cccc(Br)c1 [Compound 8]	–	5.74	6.30	–	5.82	62000	6.24	–	–	–	–
N=C(N/N=C/c1ccc(Br)cc1)N/N=C/c1ccc(Br)cc1 [Compound 9]	–	6.05	6.57	–	6.06	38000	6.56	–	–	–	–
Cc1ccc(/C=N/NC(=N)N/N=C/c2ccc(C)cc2)cc1 [Compound 10]	–	5.60	< 5.30	–	5.61	43000	6.04	–	–	–	–
COc1ccc(/C=N/NC(=N)N/N=C/c2ccc(OC)cc2)cc1 [Compound 11]	–	< 5.30	6.54	–	5.80	> 200000	6.58	–	–	–	–
N=C(N/N=C/c1ccc(C(F)(F)F)cc1)N/N=C/c1ccc(C(F)(F)F)cc1 [Compound 12]	–	5.56	6.25	–	5.81	40000	6.21	–	–	–	–
N=C(N/N=C/c1ccccc1OC(F)(F)F)N/N=C/c1ccccc1OC(F)(F)F [Compound 14]	–	< 5.30	6.41	–	5.63	156000	5.97	–	–	–	–
N=C(N/N=C/c1cccc(OC(F)(F)F)c1)N/N=C/c1cccc(OC(F)(F)F)c1 [Compound 15]	–	5.52	6.16	–	5.80	61000	6.17	–	–	–	–
N=C(N/N=C/c1ccc(OC(F)F)cc1)N/N=C/c1ccc(OC(F)F)cc1 [Compound 18]	–	6.71	7.06	–	6.72	19000	7.15	–	–	–	–
N#Cc1ccccc1/C=N/NC(=N)N/N=C/c1ccccc1C#N [Compound 20]	–	5.70	6.01	–	5.68	31000	5.99	–	–	–	–
N=C(N/N=C/c1ccccc1)N/N=C/c1ccccc1 [Compound 24]	–	< 5.30	6.24	–	5.37	> 200000	6.15	–	–	–	–
N=C(N/N=C/c1ccc(O)cc1)N/N=C/c1ccc(O)cc1 [Compound 25]	–	6.54	6.56	–	6.62	39000	6.84	–	–	–	–
N=C(N/N=C/c1ccc(-c2ccccc2)cc1)N/N=C/c1ccc(-c2ccccc2)cc1 [Compound 26]	–	7.15	7.48	–	7.06	> 200000	7.82	–	–	–	–
N=C(NN=Cc1ccc([N+](=O)[O-])cc1)NN=Cc1ccc([N+](=O)[O-])cc1 [Compound 27]	< 3.70	–	–	–	–	–	–	6.61	7.07	7.02	6.70
CN(C)c1ccc(/C=N/NC(=N)N/N=C/c2ccc(N(C)C)cc2)cc1 [Compound 28]	–	6.67	6.91	–	6.58	20000	6.93	–	–	–	–
N=C(NN=Cc1ccc(S(N)(=O)=O)cc1)NN=Cc1ccc(S(N)(=O)=O)cc1 [Compound 31]	< 3.70	–	–	–	–	–	–	< 5.30	< 5.30	< 5.30	< 5.30
CC#COc1ccc(/C=N/NC(=N)N/N=C/c2ccc(OC#CC)cc2)cc1 [Compound 32]	–	6.42	6.82	–	6.70	> 200000	6.99	–	–	–	–
N=C(N/N=C/c1ccc(N2CCOCC2)cc1)N/N=C/c1ccc(N2CCOCC2)cc1 [Compound 33]	–	6.53	6.94	–	6.48	> 200000	6.88	–	–	–	–
N=C(NN=Cc1ccc2c(c1)OC(F)(F)O2)NN=Cc1ccc2c(c1)OC(F)(F)O2 [Compound 36, 2,2′-Bis{[4-(2,2-difluoro-2,3-dioxazolo)]phenyl}methylene]carbonimidic Dihydrazide Hydrochloride]	< 3.70	–	–	–	–	–	–	6.04	6.63	6.60	6.10
N=C(N/N=C/c1ccccc1)N/N=C/c1ccccc1F [Compound 38]	–	< 5.30	6.08	–	5.66	> 200000	5.99	–	–	–	–
